Source: article PMC12163684, “Gunacins: Novel Benzo[g]chromene Derivatives from the Fungus Exobasidium sp. and Their Potent Anti-Leishmania and Trypanosoma Activities” (ACS Omega, 2025)
≈ marks a conversion by molar mass, not a printed value.

What was measured:
[1] = system: RAT2 fibroblast cell line; experiment: Cytotoxicity on proliferating cells, crystal violet assay, OD590; format: cell-based; details: Rat2, 24 h, 24 h treatment, read-out: EC50 ± SEM RAT2
Procedure: (§1) MDCK and RAT cells were cultured in DMEM with 10% FBS at 37 °C in a 5% CO2 atmosphere as described previously. , To assess the toxic effects of the compounds on proliferating cells, cells were seeded in 24-well plates for 24 h to reach ∼15% confluence, and cells were treated in triplicate with increasing concentrations of the isolated compounds for an additional 24 h. Cells were washed with 1× PBS, fixed in staining solution (0.5% crystal violet, 20% methanol) for 10 min, and gently washed five times in 1× PBS. The fixed cells were then dissolved in lysis solution (0.1 M sodium citrate, 25% ethanol, pH 4.2) for 30 min, transferred to a 96-well plate in H2O, and the OD^590 was determined. EC50 values were determined using GraphPad Prism software and the dose–response fit equation. The EC50 values were determined from two independent experiments. Additionally, the impact of the isolated substances on the morphology of the HeLa adenocarcinoma cell line and primary human skin fibroblasts was examined by using fluorescence microscopy. Cells were cultured in DME medium supplemented with 10% FCS (Gibco, Invitrogen, Carlsbad, USA) on glass coverslips in 24-well plates until reaching approximately 50% confluence. The cells were treated with varying concentrations of isolated compounds dissolved in DMSO. Wells containing DMEM with DMSO served as the negative control. After 24 h cultivation, the cells were incubated with MitoTracker Red CMXRos (10 min) to label mitochondria, then fixed with 3.7% paraformaldehyde in PBS (20 min, room temperature), permeabilized with 0.1% Triton X-100 in PBS, and blocked with 1% BSA in PBS. The cells were then stained with Phalloidin-Alexa Fluor488 conjugate. All fluorescence reagents were purchased from Molecular Probes, Invitrogen, Carlsbad, CA, USA. Nuclei were stained with Fluoroshield DAPI (Sigma-Aldrich), and cells were examined using an IX71 microscope equipped with a DP70 camera and a 40× objective. Assays were performed at concentrations of 5, 25, 50, 100, and 125 μM.

[2] = system: Madin–Darby canine kidney (MDCK) epithelial cell line; experiment: as above; format: cell-based; details: Canis lupus familiaris, 24 h treatment, read-out: EC50 ± SEM MDCK
Procedure: as §1

T. b. evansi AnTat 3/3 = experiment: Anti-trypanosomal activity, resazurin (AB assay), bloodstream form; format: cell-based, T. brucei evansi; details: Trypanosoma brucei, 72 h, axenic, 48 h + 24 h resazurin
Procedure: (§2) The bloodstream forms of T. b. gambiense LiTat 1.3, T. b. brucei 427, and T. b. evansi AnTat 3/3 were grown in HMI-11 medium pH 7.3 supplemented with 36 mM sodium bicarbonate, 100 U/mL penicillin/streptomycin, and 10% fetal bovine serum at 37 °C and 5% CO2. The bloodstream form of Trypanosoma congolense IL3000 (generous gift from Liam Morrison) was cultured in TcBSF-1 medium pH 7.3 supplemented with 26 mM sodium bicarbonate, 25 mM HEPES, 5.5 mM glucose, 1 mM sodium pyruvate, 0.04 mM adenosine, 0.1 mM hypoxanthine, 0.02 mM thymidine, 0.02 mM bathocuproine, 2 mM L-glutamine, 0.2 mM 2-mercaptoethanol, 100 U/ml penicillin/streptomycin, and 20% goat serum New Zealand origin (Gibco) at 34 °C, 5% CO2. The assay for anti-trypanosomal activity was performed using the resazurin sodium salt dye (AB Assay) according to the published protocol in a 96-well plate format. Parasites at a number of 5 × 10^3 per well (T. b. brucei and T. b. gambiense) or 1 × 10^4 per well (T. b. evansi) were incubated with different drug concentrations (2-fold serial dilutions) in a volume of 200 μL of the medium. Medium with 1% DMSO (the highest concentration of the solvent used in the assay) was used to confirm no effect of the solvent on the cell growth. The plates were incubated for 48 h at the appropriate temperature. Then, 20 μL of resazurin sodium salt solution (0.125 mg/mL in 1× PBS, pH 7. 4) was added to each well, and the cells were incubated for another 24 h under the same conditions. The fluorescence signal was quantified using a Tecan Infinite M200 plate reader at excitation and emission wavelengths of 560 and 590 nm, respectively. The EC50 values were calculated using GraphPad Prism 9.5.1 by nonlinear regression with a variable slope. Each EC50 value is the mean ± standard error of the mean of three separate experiments performed in duplicate.

E. coli ATCC 3988 = experiment: Minimum inhibitory concentration (MIC) testing, serial binary dilution in 96-well plates; format: cell-based; details: Escherichia coli, ATCC3988; 24 h in the dark; lowest concentration with no live microorganisms
Procedure: (§3) Minimum inhibitory concentration (MIC) testing of the extracts was performed using 96-well polypropylene plates against four different microorganisms: the Gram-positive bacterium K. rhizophila ATCC 9341, the Gram-negative bacterium E. coli ATCC 3988, and the yeasts C. albicans CCM 8215 and C. neoformans CCF 1081.
(§4) A working inoculum of each microorganism was prepared as follows: for E. coli and K. rhizophila, the inoculum was grown in LB medium (LB Broth, 25 g/L, incubated at 36 °C); for C. albicans and C. neoformans, YM6.3 medium (maltose extract 10 g, glucose 4 g, yeast extract 4 g per 1 L distilled water, incubated at 24 °C) with a cell concentration of approximately 5 × 10^5 cells/mL for all microorganisms was used.
(§5) Chloramphenicol served as a positive control for bacteria, while cycloheximide was used as a positive control for fungi. The gradient of the test substances was established by serial binary dilution across the wells. The MIC was determined by identifying the lowest concentration at which no live microorganisms were present. Cultivation was performed in the dark for 24 h.

K. rhizophila ATCC 9341 = experiment: as above; format: cell-based; details: Kocuria rhizophila, ATCC9341; 24 h in the dark; lowest concentration with no live microorganisms
Procedure: as §3, §4, §5

C. albicans CCM 8215 = experiment: as above; format: cell-based; details: Candida albicans, CCM8215; 24 h in the dark; n.d. = activity not detected; highest tested concentration 66.7 μM
Procedure: as §3, §4, §5

C. neoformans CCF 1081 = experiment: as above; format: cell-based; details: Cryptococcus neoformans, CCF1081; 24 h in the dark; n.d. = activity not detected; highest tested concentration 66.7 μM
Procedure: as §3, §4, §5

T. b. brucei 427 = experiment: Anti-trypanosomal activity, resazurin (AB assay), bloodstream form; format: cell-based; details: Trypanosoma brucei, 72 h, axenic, 48 h + 24 h resazurin
Procedure: as §2

[3] = system: Trypanosoma congolense IL3000; experiment: as above; format: cell-based; details: 72 h, axenic, 48 h + 24 h resazurin, read-out: EC50 T. congolense
Procedure: as §2

[4] = system: L. mexicana (MNYC/BZ/1962/M379) amastigote; experiment: Anti-Leishmania activity, AB assay, axenic amastigotes; format: cell-based
Procedure: (§6) Promastigote stages of L. mexicana (MNYC/BZ/1962/M379), a generous gift from Vyacheslav Yurchenko, were cultured in M199 medium pH 7.4 supplemented with 2 μg/mL biopterin, 2 μg/mL hemin, 25 mM HEPES, 100 U/mL penicillin/streptomycin, and 10% heat-inactivated FBS (BioSera) pH 7.4 at 25 °C. The amastigotes were differentiated in vitro from late log/stationary promastigote cultures and cultivated in Schneider’s Drosophila Medium (SIM) at pH 5.5, supplemented with 1.5 μg/mL hemin, 100 U/mL penicillin/streptomycin, and 20% heat-inactivated FBS (BioSera) at pH 5.5, at 32 °C, and 5% CO2. Following a three-day period, the promastigotes underwent a transformation into amastigotes, which were then maintained in SIM.
(§7) To estimate the EC50, the AB assay, as previously described, was employed. The results are expressed as EC50, representing the dose of the compound required to inhibit cellular growth by 50%. Each EC50 value is the mean ± the standard error of the mean derived from at least three separate experiments, each performed in duplicate.

[5] = system: T. b. gambiense LiTat 1.3; experiment: Anti-trypanosomal activity, resazurin (AB assay), bloodstream form; format: cell-based, T. brucei gambiense; details: Trypanosoma brucei, 72 h, axenic, 48 h + 24 h resazurin
Procedure: as §2

[6] = system: L. mexicana (MNYC/BZ/1962/M379) promastigote; experiment: Anti-Leishmania activity, AB assay, axenic promastigotes; format: cell-based
Procedure: as §6, §7

| SMILES | EC50 [1] | EC50 [2] | EC50 (T. b. evansi AnTat 3/3) | MIC (E. coli ATCC 3988) | MIC (K. rhizophila ATCC 9341) | MIC (C. albicans CCM 8215) | MIC (C. neoformans CCF 1081) | EC50 (T. b. brucei 427) | EC50 [3] | EC50 [4] | EC50 [5] | EC50 [6] |
| --- | --- | --- | --- | --- | --- | --- | --- | --- | --- | --- | --- | --- |
| COc1cc(O)c2c(c1)C(=O)C1=C(C2=O)[C@@H](O)[C@@H](O)[C@@H](C)O1 [Compound 4, (2R,3R,4R)-3,4,6-trihydroxy-8-methoxy-2-methyl-3,4-dihydro-2H-benzo[g]chromene-5,10-dione] | 5.1 ± 0.1 µM | 6 ± 1 µM | – | – | – | – | – | – | – | – | – | – |
| COc1cc(O)c2c(c1)C(=O)C1=C(C[C@@H](O)[C@@H](C)O1)C2=O [Compound 6, (2R,3R)-3,6-dihydroxy-8-methoxy-2-methyl-3,4-dihydro-2H-benzo[g]chromene-5,10-dione] | 6.7 ± 0.8 µM | 7.2 ± 0.5 µM | 2.4 µM | 2.1 µM (≈ 0.61 µg/mL) | 8.3 µM (≈ 2.41 µg/mL) | 66.7 µM (≈ 19.4 µg/mL) | 66.7 µM (≈ 19.4 µg/mL) | 5.1 µM | 9.2 µM | 5.5 µM | 8.6 µM | 25.2 µM |
| C[C@@H]1[C@H](O)[C@@H](C)/C=C/C=C/C=C/C=C/C=C/C=C/C=C/[C@H](O[C@@H]2O[C@H](C)[C@@H](O)[C@H](N)[C@@H]2O)C[C@@H]2O[C@](O)(C[C@@H](O)C[C@@H](O)[C@H](O)CC[C@@H](O)C[C@@H](O)CC(=O)O[C@H]1C)C[C@H](O)[C@H]2C(=O)O [amphotericin B, reference compound] | – | – | – | – | – | – | – | – | – | – | – | 0.1 µM |
| O=C(N[C@H](CO)[C@H](O)c1ccc([N+](=O)[O-])cc1)C(Cl)Cl [chloramphenicol, reference compound] | – | – | – | 10.3 µM (≈ 3.33 µg/mL) | 10.3 µM (≈ 3.33 µg/mL) | – | – | – | – | – | – | – |
